Counter-ions that a name gives are not always drawn.

For `CN(C(=O)[C@@H](Cc1ccc2ccccc2c1)N(C)C(=O)/C=C/CC(C)(C)N)[C@@H](CNC(=S)NC1CC1)Cc1ccccc1` (as salt: trifluoroacetic acid salt), the melting point lay within 138 to 145 °C.

In general, melting point refers to the temperature of the solid-liquid transition.

Values taken from patent publication US6555570B2, “Compounds with growth hormone releasing properties” (Novo Nordisk A/S, priority 1995, dated 2003).
